The values below come from patent US9486507B2, “Pro-coagulant compounds and methods of use thereof” (priority 2011, dated 2016).

Some results are limits rather than exact numbers.

As a reminder, the EC50 is the concentration at which the effect is half-maximal.

One assay deals with FIXa (Homo sapiens, UniProt P00740). Kind of assay: FXa generation assay with human FIXa. On the set-up: purchased Haematologic Technologies. The class given is biochemical. The note with it: FXa generation assay using human FIXa; class symbols.
Chain of FIXa (P00740 47-191 limits assumed): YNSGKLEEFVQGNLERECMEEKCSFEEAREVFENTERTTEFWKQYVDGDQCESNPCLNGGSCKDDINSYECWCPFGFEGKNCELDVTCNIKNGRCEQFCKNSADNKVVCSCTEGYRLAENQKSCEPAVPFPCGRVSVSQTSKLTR
Chain of FIXa (P00740 227-461 limits assumed): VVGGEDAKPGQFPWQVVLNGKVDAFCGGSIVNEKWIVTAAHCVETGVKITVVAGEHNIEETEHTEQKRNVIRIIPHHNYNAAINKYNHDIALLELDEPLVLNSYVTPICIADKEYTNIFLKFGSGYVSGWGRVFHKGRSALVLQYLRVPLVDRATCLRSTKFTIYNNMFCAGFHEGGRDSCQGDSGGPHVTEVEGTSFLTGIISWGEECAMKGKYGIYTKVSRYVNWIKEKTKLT
Description: FXa generation was utilized to assess the capability of the compounds of the present disclosure to enhance the catalytic activities of FIXa and/or FVIIa.
To measure the catalytic activity of FIXa, FIXa was mixed with FX and phospholipids in the presence of calcium chloride. Under these conditions FIXa cleaves the zymogen FX into the active form FXa.
The generation of FXa is monitored by the change in absorbance of the reaction at 405 nm due to the presence of a cleavable FXa chromogenic substrate (S-2765; Z-D-Arg-Gly-Arg-pNA; cleavage of p-nitroaniline). […] The kit contains all the FXa generation components, however, FIXa and FX obtained from this kit are from a bovine origin and were replaced with purified human FIXa or human FVIIa and human FX (Haematologic Technologies).
The assay was also modified to enhance the screening throughput. Instead of the sequential addition, all the assay components were mixed and added simultaneously to the purified compound to be assayed. A 125 μl reaction mix of the assay components was prepared in the buffer supplied by the manufacturer (50 mM Tris 7.3, and 1% BSA). […] The reaction mix (125 ul) was then added to 25 ul of compound diluted in water in a Costar-3651 flat bottom 96-well plate. […] The absorbance was monitored over a period of 1 hour at 405 nm using a plate reader (Synergy 2, Biotek).
The 405 nm absorbance data were then analyzed to obtain the slope of the first derivative which reflects the rate of change in absorbance. The first derivative slope data for each compound concentration were plotted against the compound concentration and fitted to a four-parameter equation to obtain the EC50 and Vmax values for each compound tested.
Turning to APPGGKRMCLVSGCQLFPWSAS, the Vmax result is on record as “(+) ((+)<1)”.
The same measure, in the same setting: the entry for AQLRRKLTCLASYCWLFGFFSP is “(++) ((++) 1-2)”; for AQTRVARCCQLF it is “(+) ((+)<1)”; for AVAINKVPCVASYCQLFESKIH it is “(+) ((+)<1)”.
On the same count and under the same terms, the entry for AWPYHKPTCLASQCWQFLAQGS is “(+) ((+)<1)”; for DAGPNKLRCLASYCQLFGGGHA it is “(+) ((+)<1)”; for DAKVAKLRCLGSQCWLLQYAPG it is “(++) ((++) 1-2)”.
In the case of DSRSAKRKCLASYCWLFGIGQA, the Vmax entry is on record as “(+) ((+)<1)”.
As for EQTCLASYCWLF, the Vmax result was “(+) ((+)<1)”.
With ERYRLDMTCMASQCWQFPPAAG, the Vmax result is listed as “(++) ((++) 1-2)”.
As to FGQPSRLTCLASYCWLFGNLVT, the Vmax result was “(++) ((++) 1-2)”.
In the case of FPIQHKLTCLSSDCWLFPSHSY, the Vmax result is on record as “(+) ((+)<1)”.
Turning to GAQLDKETCLASYCQLFSTVRR, the Vmax result is on record as “(+) ((+)<1)”.
For the substance GASSDKLTCRTRHCSMFQPLSV, the Vmax entry is “(+) ((+)<1)”.
GCSSDKLTARTRHCSMFQPLSV: the Vmax entry is given as “(+) ((+)<1)”.
GDSGRKLSCLGSYCWLSVQFMA: the Vmax entry is listed as “(++) ((++) 1-2)”.
Consider GEGGGKLSCVAIQCGLFKGLGR, for which the Vmax result is on record as “(+) ((+)<1)”.
For GFGSRKLTSLASYGWLIQDRLP, the Vmax result is reported as “(+) ((+)<1)”.
Take GGALQQLTCPASYCWLFPMEHS: the Vmax result is recorded as “(+) ((+)<1)”.
For the substance GIQGSEVACRASFCRLFEQGHV, the Vmax result is “(+) ((+)<1)”.
As to GSCRDQLTCLSSDRWQFFRRVS, the Vmax result is listed as “(+) ((+)<1)”.
GVEDRQLTCLASSCWVFSRHSV: the Vmax result is recorded as “(++) ((++) 1-2)”.
Still for that read-out and setting: the entry for HDSLDQLTCLASVCQLASMGAR is “(+) ((+)<1)”; for HGLADRLTCLSSDCWLQPFGTS it is “(+) ((+)<1)”; for HLGSPKLTCGASQCWLLNHEVS it is “(+) ((+)<1)”.
The same measure, in the same setting: the entry for HMQWGKLPCLASYCWLFWYGIG is “(+++) ((+++)>2)”; for HQQRRKLTCLAGYCWLFVLGPS it is “(+++) ((+++)>2)”.
The same measure, in the same setting: the value for KEGFAQLPCLVCQGGLFSPRAI was “(+) ((+)<1)”; that for KGAYQKLTCLASYCLLFLLTAQ was “(++) ((++) 1-2)”; that for KGRCLTSHCWLF was “(+) ((+)<1)”.
For KKTCLASYCWLF, the Vmax entry is recorded as “(++) ((++) 1-2)”.
With KLKCLASYCWLF, the half-maximal effective concentration (EC50) is 500 to 1000 nM and the Vmax result is given as “(++++) ((++++)>3)”.
On to KLKCLSSECQLL, for which the Vmax result was “(+) ((+)<1)”.
KLSCQAGQCWVF: the Vmax result is given as “(+++) ((+++)>2)”.
On to KLTCKASYCWLF, for which the Vmax result was “(++++) ((++++)>3)”.
Consider KLTCLASKCWLF, for which the Vmax result was “(+) ((+)<1)”.
The same measure, in the same setting: the value for KLTCLASQCWLF was “(+++) ((+++)>2)”.
On to KLTCLASYCFLF, for which the EC50 is 500 to 1000 nM and the Vmax result was “(++++) ((++++)>3)”.
In the case of KLTCLASYCLLF, the EC50 lay in the range of 500 to 1000 nM and the Vmax entry is on record as “(+++) ((+++)>2)”.
On to KLTCLASYCQLF, for which the EC50 lay in the range of 500 to 1000 nM and the Vmax result is on record as “(++++) ((++++)>3)”.
KLTCLASYCQLV: the Vmax entry is “(+++) ((+++)>2)”.
As for KLTCLASYCWIF, the 50% effective concentration (EC50) is 500 to 1000 nM and the Vmax result is “(+++) ((+++)>2)”.
Turning to KLTCLASYCWLK, the Vmax result is on record as “(+) ((+)<1)”.
Turning to KLTCLASYCWYF, the Vmax entry was “(+++) ((+++)>2)”.
Regarding KLTCLATYCWLF, the Vmax entry is given as “(++) ((++) 1-2)”.
Consider KLTCLGSYCWLF, for which the Vmax entry was “(+++) ((+++)>2)”.
For the substance KLTCLKSYCWLF, the Vmax entry was “(++) ((++) 1-2)”.
The same measure, in the same setting: the entry for KLTCLSSYCWLF is “(+++) ((+++)>2)”.
In the case of KLTCLVSYCWLF, the EC50 fell in the range of 500 to 1000 nM and the Vmax result is given as “(+++) ((+++)>2)”.
For the substance KLTCQASYCWLF, the Vmax entry was “(++) ((++) 1-2)”.
As to KLTCRASYCQLF, the Vmax entry is on record as “(+++) ((+++)>2)”.
On the same count and under the same terms, the entry for KRYVYRQMCLVSACWLLQLGYA is “(++) ((++) 1-2)”; for LLHAQKLSCLASYCWVFDAEWD it is “(+) ((+)<1)”.
Same read-out and setting: the value for LLQIPNLTCLGSYCWLDNGVYA was “(+) ((+)<1)”.
Turning to LQELTKLTCLARSGWLVCNPGY, the Vmax entry is “(+) ((+)<1)”.
LRTQPKVTGLASCSGLVNCSRD: the Vmax entry is “(+) ((+)<1)”.
In the case of LTWREKLACLASYCWLFLWGAP, the Vmax result is given as “(++) ((++) 1-2)”.
For the substance MAGMLKLTCFASYCGLFPLVSS, the Vmax entry is “(++) ((++) 1-2)”.
The same measure, in the same setting: the value for MEGTRQPTCLASYCSPFQYVAP was “(+) ((+)<1)”; that for MLTCIASYCQLG was “(+) ((+)<1)”; that for NGGMQKPACLASQCWLFANPLP was “(++) ((++) 1-2)”.
On the same count and under the same terms, the value for NLTGRASYGWLP was “(+) ((+)<1)”; that for NPTCQASYCQLF was “(+) ((+)<1)”; that for QAKMLKLTCLASYCWLFWVTRS was “(+++) ((+++)>2)”.
On to QDGDGKLTCRASYCRRFLVGVH, for which the Vmax entry was “(+) ((+)<1)”.
In the case of QDGVEKLTCLASYCWRFGDHGA, the Vmax entry is “(+) ((+)<1)”.
For the substance QEQPAKLTCRGSYCWLFKRGDQ, the Vmax entry is given as “(+) ((+)<1)”.
For the substance QGQARKLACLASYCWLFPSSAG, the Vmax entry was “(+) ((+)<1)”.
With QLPCLASYCGLF, the Vmax result was “(+) ((+)<1)”.
On the same count and under the same terms, the entry for QLTCLASECGLS is “(+) ((+)<1)”.
QLTCLASYCGGV: the Vmax result was “(+) ((+)<1)”.
Take QLTCLASYCWLF: the Vmax entry was “(+) ((+)<1)”.
For the substance QQRQIKMSCLASYCWLFGSIPW, the EC50 was in the range of 500 to 1000 nM and the Vmax entry is “(++) ((++) 1-2)”.
As for QQTCQASQCQLF, the Vmax entry is listed as “(+) ((+)<1)”.
Take RFQTTQLTCLGSASCLFNLSVR: the Vmax entry is listed as “(+) ((+)<1)”.
In the case of RGRSAKLRCLASYCWLFFGVIL, the Vmax entry is “(+++) ((+++)>2)”.
RGRSAKLRCLASYCWLFFTVIL: the Vmax entry is on record as “(+++) ((+++)>2)”.
On the same count and under the same terms, the entry for RGRSAKLTCLASYCWLFFGVIL is “(+++) ((+++)>2)”; for RGSVHQPTCLGGYCGRLHSSWV it is “(+) ((+)<1)”; for RHSNHNLTCQASYCWLLPAGLQ it is “(+) ((+)<1)”.
With RLTCLASYCWLF, the Vmax entry is “(+++) ((+++)>2)”.
For the substance RPGGGKVTCQASYCWPFLARAG, the Vmax entry was “(+) ((+)<1)”.
Same read-out and setting: the entry for RQLWNKLTCLASYCALIGLSGT is “(++) ((++) 1-2)”; for RRCPGKLQALASYCWLFWTGIA it is “(+++) ((+++)>2)”; for RSFTSELTCLASSCRRFHHVPP it is “(+) ((+)<1)”.
The same measure, in the same setting: the value for RSQGRKLTCLASYCWLFLVVHR was “(++) ((++) 1-2)”; that for RSTVSQMRCLASYCWLFPALVS was “(++) ((++) 1-2)”; that for SCVKHELKCLSSDSRLFSAVQR was “(+) ((+)<1)”.
With SGFGMKLTCLASYCGLFQGEIG, the Vmax entry is “(+) ((+)<1)”.
As for SGGSGKLTCLASYCWPFGSQVR, the Vmax result is on record as “(+) ((+)<1)”.
As to SGRGGKLTCQASFCQLFGNGLS, the Vmax result is reported as “(++) ((++) 1-2)”.
On the same count and under the same terms, the value for SISGQQLTCRASHCWLNLPWHS was “(+) ((+)<1)”; that for SKWEHQRGCLANNCWLFTLAPG was “(+) ((+)<1)”.
As for SLADTQLTWLARQYWLSVSEGS, the Vmax entry was “(+) ((+)<1)”.
For SRQSDKPTCLAISCSLLTSNVR, the Vmax entry was “(+) ((+)<1)”.
For the substance SYGRTKLTCLASSCWLFGQVHG, the Vmax result is given as “(+) ((+)<1)”.
The same measure, in the same setting: the value for TLDSKNLQCLGSSCWLFSSGLS was “(+) ((+)<1)”; that for TLLYQNRTCLASYCWLFDKRSV was “(+) ((+)<1)”.
As to TLTCRASYCQLF, the Vmax result is recorded as “(+) ((+)<1)”.
Still for that read-out and setting: the value for VAHYGKVTCLASYCQPLPSVGA was “(+) ((+)<1)”.
With VARASKVECLASYCQLFVGGEV, the Vmax result is reported as “(+) ((+)<1)”.
Regarding VDKGHQLRCQAGYCWLLGYNRE, the Vmax entry is recorded as “(+) ((+)<1)”.
As for VGEHRKISCVASNCQLLRSGLA, the Vmax result was “(+) ((+)<1)”.
As for VQRSTQLTCLYGGCRLFGWNYH, the Vmax entry is listed as “(+) ((+)<1)”.
Same read-out and setting: the entry for VSGTGKLTCLASYCWLFQLGSF is “(++) ((++) 1-2)”; for VSGTGRLTCVASYCWMFQLGIF it is “(++) ((++) 1-2)”.
The same measure, in the same setting: the value for VSGTGRLTCVASYCWMFQLGSF was “(++) ((++) 1-2)”; that for WHERQQLTCLASYCGLFVGQVA was “(+) ((+)<1)”; that for YARDSTLTCQARTCQLVDYLGP was “(+) ((+)<1)”.

Staying with this assay, now noted: FXa generation assay using human FIXa; numeric bounds.
In the case of EGRRDKLTCLASYCWLVGHGQH, the Vmax is more than 0.3.
Same read-out and setting: the value for GASGRRRTCVASYCLLFQSGLP was more than 0.1; that for HYARVQLRCLDGYCWLLTKSRM was more than 2.5; that for KKTCVASFCQMI was more than 4.
On the same count and under the same terms, the figure for LRQRLAKTCVASYCWLFSLVAS is more than 1.5; for RCAQSRLPWLVSYCWLFSPYGM it is more than 1.5.
On the same count and under the same terms, the value for RYQRARLTCLASYCGLLFSMSA was more than 0.5; that for WVPQWKVTCLASCSRLFHGFDA was more than 1.5.

The same assay, now with this note: FXa generation assay, 10 nM hFIXa, 100 nM hFX; class symbols.
For “PRIrTVGPGSrSASGKSTCLASYCWLFWTGIA [Compound 24]”, the Vmax entry is reported as “(++++) ((++++)>3)”.

The subject of a further assay is FVIII deficient human plasma. Kind of assay: Thrombin generation assay (TGA) in FVIII-deficient plasma. The class given is biochemical. The note with it: 0.1 U/mL FVIII; compound 7 100-6.3 uM, compounds 8 and 9 50-3.1 uM.
Turning to “GWKPFLWDPRVLLSSGWYGRG [Compound 7, reference compound]”, the “TGA activity in the presence of FVIII” value is on record as “competes with FVIII”.
Regarding “GWKPFLWDPRVLLSSGWYGRGGGGGWKPFLWDPRVLLSSGWYGRG [Compound 9, reference compound]”, the “TGA activity in the presence of FVIII” value is recorded as “competes with FVIII”.
